# Results as given in patent US20080075796A1, “Compositions and Methods for Controlling Insects” (TyraTech, Inc., priority 2003, published 2008).
# How the values were obtained:
# [1] = target: T1, Or43a receptor (Drosophila melanogaster, UniProt P81917, L154V); test: cAMP production in Schneider cells expressing Or43a receptor; format: cell-based
# T1 construct: His (from vector pAc5.1/V5-His B) (C); expressed in transfected cells
# Experimental: Cells are grown on dishes and the media changed the day before the treatment. […] About 20 mL of insect saline is added, and cells are harvested by gentle scraping. An aliquot of the cells is counted by hemocytometer, and the cells are then centrifuged for about 5 minutes at about 1000 RPM. Cells are resuspended to give about 3×10^6 cells per mL. IBMX is added to about 200 μM. Then about 1 mL of cell suspension is aliquoted for treatment. Forskolin (cAMP inducing agent), tyramine or different composition candidates are added, and the cells are incubated at about 27° C. for about 10 minutes.
# Treated cells are centrifuged at about 13000 g for about 10 seconds. The solution is aspirated and about 1 mL of about −20° C. 70% ethanol is added. The cell pellet is disrupted by vortexing and the samples placed at about −20° C. overnight. Following the ethanol extraction, cellular debris is pelleted by centrifugation at about 13000 g for about 5 minutes. The supernatant is transferred to a tube and lyophilized to dryness in a rotary speed-vac. The resulting extract is resuspended in about 100 μL TE and used for the cAMP assay.
# The cAMP assay is based on competition binding between endogenous cAMP and ^3H-cAMP to a cAMP binding protein. The ^3H-cAMP Biotrak system (Amersham Biosciences) is used for this assay as per the manufacturer's instructions. Briefly, about 50 μL of the cellular extract is incubated with about 50 μL ^3H-cAMP and about 100 μL cAMP binding protein in an ice bath for about 2-4 hours. Charcoal (about 100 μL) is then added and the solution centrifuged for about 3 minutes at about 4° C. About 200 μL of the reaction mixture is removed and levels of ^3H-cAMP are determined by scintillation counting.
# As such, the cells expressing olfactory receptors have a functionally active cAMP cascade.
# [2] = target: T1, Or43a receptor; test: biochemical; format: binding
# Experimental: To address whether Or83b receptor and Or43a receptor contain a specific binding site for tyramine, membranes expressing Or83b receptor or Or43a receptor are prepared from cells expressing either receptor, as described above, and used for competitive binding with ^3H-tyramine. The binding assay protocol is exactly as described for cells expressing TyrR, as described above.
# T1 sequence (P81917 whole entry L154V): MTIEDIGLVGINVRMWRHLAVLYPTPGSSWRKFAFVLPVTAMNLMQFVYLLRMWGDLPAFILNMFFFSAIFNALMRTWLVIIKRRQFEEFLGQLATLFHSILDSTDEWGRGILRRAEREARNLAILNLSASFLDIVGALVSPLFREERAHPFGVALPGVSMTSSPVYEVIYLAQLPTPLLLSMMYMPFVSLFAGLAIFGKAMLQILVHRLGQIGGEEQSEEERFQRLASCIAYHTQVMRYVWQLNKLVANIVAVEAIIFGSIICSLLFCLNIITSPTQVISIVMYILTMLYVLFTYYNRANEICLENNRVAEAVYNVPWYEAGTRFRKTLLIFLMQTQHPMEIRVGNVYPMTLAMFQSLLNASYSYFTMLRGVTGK
structure (smiles),measurement,setting,value
NCCc1ccc(O)cc1 [tyramine],change in cAMP levels,"[1]; agent alone, tyramine about 20 μM, LFO, BSO about 50 μg/ml, forskolin about 10 μM",increase in cAMP levels
same,"change in cAMP levels, with forskolin",[1]; plus forskolin about 10 μM,increase in cAMP levels
same,Kd,[2],~0.0135 µM
same,Ki,[2],0.0135 µM
